Measured values as given in PubChem BioAssay AID1645861 (Buhrlage Lab, Dana-Farber Cancer Institute and Novartis …, 2021).
pIC50: −log10 of the molar value. Activity calls are given as the source filed them.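 Rule for the calls: active = compounds whose peak USP7 inhibition across the dose series reached 30% or more; inactive = the rest.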

The compounds below were run against Ubiquitin carboxyl-terminal hydrolase 7 (Homo sapiens) (UniProt Q93009) (assay: Biochemical concentration-response for ubiquitin-specific peptidase 7 DUB inhibitors, verifying primary hits (AID 1645861)). Settings: purified USP7, Ub-rhodamine cleavage fluorescence, 60 min.
Chain of Ubiquitin carboxyl-terminal hydrolase 7 (Homo sapiens) (Q93009 whole entry, looked up): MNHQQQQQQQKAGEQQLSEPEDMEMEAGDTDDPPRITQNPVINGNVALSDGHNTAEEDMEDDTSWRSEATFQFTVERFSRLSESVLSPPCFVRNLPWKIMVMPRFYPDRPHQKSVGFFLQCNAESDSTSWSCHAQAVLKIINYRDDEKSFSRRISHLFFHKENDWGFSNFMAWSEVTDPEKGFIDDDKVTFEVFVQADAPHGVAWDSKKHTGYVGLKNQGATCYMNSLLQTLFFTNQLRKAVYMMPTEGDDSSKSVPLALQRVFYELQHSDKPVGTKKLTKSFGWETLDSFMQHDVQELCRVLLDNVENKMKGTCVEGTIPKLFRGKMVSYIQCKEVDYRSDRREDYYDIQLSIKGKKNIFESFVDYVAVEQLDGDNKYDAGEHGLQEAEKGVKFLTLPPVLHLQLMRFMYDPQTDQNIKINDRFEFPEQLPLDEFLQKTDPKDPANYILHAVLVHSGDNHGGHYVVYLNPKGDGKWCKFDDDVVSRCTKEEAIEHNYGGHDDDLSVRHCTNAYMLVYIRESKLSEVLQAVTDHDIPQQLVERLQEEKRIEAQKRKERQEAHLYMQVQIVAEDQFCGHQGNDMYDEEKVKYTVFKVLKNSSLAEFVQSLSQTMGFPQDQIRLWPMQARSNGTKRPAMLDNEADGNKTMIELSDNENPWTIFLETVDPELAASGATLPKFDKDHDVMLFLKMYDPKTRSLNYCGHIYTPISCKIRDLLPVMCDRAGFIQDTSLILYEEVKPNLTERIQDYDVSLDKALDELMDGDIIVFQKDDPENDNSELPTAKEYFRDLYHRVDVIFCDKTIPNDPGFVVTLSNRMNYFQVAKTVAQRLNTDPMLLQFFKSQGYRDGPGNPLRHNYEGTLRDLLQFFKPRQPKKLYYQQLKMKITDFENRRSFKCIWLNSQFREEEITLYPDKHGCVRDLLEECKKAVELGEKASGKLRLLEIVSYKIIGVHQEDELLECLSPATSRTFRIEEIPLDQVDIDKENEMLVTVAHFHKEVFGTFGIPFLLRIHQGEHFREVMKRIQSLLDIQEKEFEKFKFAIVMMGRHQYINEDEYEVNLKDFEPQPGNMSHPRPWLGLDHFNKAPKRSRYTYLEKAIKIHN
`Cc1cccc(NC(=O)Nc2ccccc2OCc2cc(=O)n3cccc(C)c3n2)c1` was tested, and the IC50 was > 50 µM (inactive).
`O=c1c2ccccc2oc2nc(-c3cccs3)n(-c3ccccc3)c(=O)c12` was tested, and the IC50 was > 50 µM (inactive).
In the case of `Cc1cccc2nc(CSc3nc4ccc([N+](=O)[O-])cc4[nH]3)cn12`, the IC50 was > 50 µM (inactive).
`O=C1CSC(c2ccc3c(c2)OCO3)c2c(n(C3CCCCCC3)[nH]c2=O)N1` (centres undefined) was tested, and the IC50 was > 50 µM (inactive).
`O=C1c2ccccc2C(=O)c2c(O)c(O)cc(O)c21` gave a pIC50 of 4.34.
With `O=C(CSc1nc2c(cnn2-c2ccccc2)c(=O)[nH]1)Nc1ccc(Cl)cc1F` the IC50 was > 50 µM (inactive).
`Cc1ccc(-c2nc(NC(=O)COc3ccc(Cl)cc3)no2)cc1` gave a pIC50 of 4.65.
`CCCCCC(=O)C(CCCC)c1oc(=O)c(CCCC)c(O)c1CCCC` (centres undefined) was tested, and the IC50 was > 50 µM (inactive).
`COc1cc(OC)c(NC(=O)c2cc(-c3ccccn3)n[nH]2)cc1Cl` was tested, and the IC50 was > 50 µM (inactive).
`COc1cccc(CNC(=O)c2nnn(CC(=O)Nc3cc(C)ccc3C)c2N)c1` was tested, and the IC50 was > 50 µM (inactive).
`Cn1c2ccccc2c(=O)c2c(=O)n(Cc3ccccc3)c(-c3ccco3)nc21` was tested, and the IC50 was > 50 µM (inactive).
`O=c1[nH]c(C2CCN(S(=O)(=O)c3ccc(S(=O)(=O)NC4CCCCC4)cc3)CC2)nc2c1nnn2Cc1ccc(F)cc1` was tested, and the IC50 was > 50 µM (inactive).
In the case of `O=c1cc(-c2ccc(O)c(O)c2)oc2cc(O[C@@H]3O[C@H](CO)[C@@H](O)[C@H](O)[C@H]3O)cc(O)c12`, the pIC50 was 6.15.
For `Cc1cc(=O)n2c3c(c4c(cc13)c(CO)cc(=O)n4C)OC2`, the IC50 was > 50 µM (inactive).
`O=C(NC1(O)C(=O)c2ccccc2C1=O)c1ccc(-c2csnn2)cc1` was tested, and the IC50 was > 50 µM (inactive).
`Cc1ccc(-n2cc(C(=O)NCCCc3ccccc3)nn2)cc1` was tested, and the IC50 was > 50 µM (inactive).
`N#Cc1cn2c(nc1-c1ccc(Cl)cc1)nc1ccccc12` was tested, and the IC50 was > 50 µM (inactive).
Work on `O=C(Cn1c(=O)n(Cc2ccccc2)c(=O)c2ncccc21)NCc1ccccc1Cl` yielded a pIC50 of 4.36.
With `Cc1cccc(N2C(=O)/C(=C\c3cc(C#N)n(C)c3C)c3ccccc3C2=O)c1` the IC50 was > 50 µM (inactive).
In the case of `O=C(CCn1c(=O)c2ccccc2n(CC(=O)OCc2ccccc2)c1=O)NCc1ccc2c(c1)OCO2`, the IC50 was > 50 µM (inactive).
For `CCOc1ccc(NC(=O)Cn2c(=O)n(CCC(=O)NCc3ccco3)c(=O)c3ccccc32)cc1`, the IC50 was > 50 µM (inactive).
`COc1ccc(NS(=O)(=O)c2cc(NC(=O)CC(=O)c3ccc([N+](=O)[O-])cc3)ccc2Cl)cc1` was tested, and the IC50 was > 50 µM (inactive).
For `N#Cc1cccc(NC(=O)Nc2cccn(Cc3ccccc3F)c2=O)c1`, the IC50 was > 50 µM (inactive).
In the case of `O=c1c(S(=O)(=O)c2cc(F)cc(F)c2)c[nH]c2cc(Cl)ccc12`, the IC50 was > 50 µM (inactive).
Work on `COc1c(O)cc(CC(=O)O)c(C(C)=O)c1O` yielded a pIC50 of 4.32.
`COc1ccc(-c2c(NC(=O)C3COc4ccccc4O3)n[nH]c2C)cc1OC` (centres undefined) was tested, and the IC50 was > 50 µM (inactive).
With `Nc1ccc2oc(-c3cccc(-c4nc5cc(N)ccc5o4)n3)nc2c1` the IC50 was > 50 µM (inactive).
In the case of `COc1cc(Cl)c(C)cc1NC(=O)Cn1c(=O)n(CC(=O)NCc2ccco2)c(=O)c2ccccc21`, the IC50 was > 50 µM (inactive).
In the case of `O=C(CCCn1c(=O)c2sccc2n(CC(=O)NCCC2=CCCCC2)c1=O)NCc1ccc2c(c1)OCO2`, the IC50 was > 50 µM (inactive).
For `COC(=O)c1ccc2c(=O)n(CCCCCC(=O)NCCc3ccc(S(N)(=O)=O)cc3)c(=O)[nH]c2c1`, the IC50 was > 50 µM (inactive).
Work on `Cc1ccc(NC(=O)Nc2ccc(C)n(CC(=O)Nc3ccc(C)c(C)c3)c2=O)cc1` yielded a pIC50 of 4.41.
For `CC1OC2CC(O)C1(O)C1=C2C(O)=C(C(N)=O)C(=N)C1=O` (centres undefined), the IC50 was > 50 µM (inactive).
In the case of `Cc1ccc(NC(=O)Cn2c(=O)n(CC(=O)NCCc3ccccc3)c(=O)c3sccc32)cc1C`, the IC50 was > 50 µM (inactive).
Work on `CCCCCCCCCCCCCCCc1cc(O)cc(O)c1C(=O)O` yielded a pIC50 of 4.51.
In the case of `CC1CCCN(S(=O)(=O)c2ccc(-n3cnc(C(=O)NC4CC4)c3)nc2)C1` (centres undefined), the IC50 was > 50 µM (inactive).
In the case of `O=C(NCc1ccc2c(c1)OCO2)c1cc2c(s1)CCC2`, the IC50 was > 50 µM (inactive).
For `COc1cc2c(=O)n(CCC(=O)NC3CCCC3)c(=O)n(CC(=O)Nc3cccc(Cl)c3)c2cc1OC`, the IC50 was > 50 µM (inactive).
For `Cc1ccc(-c2cc(C(F)F)n3ncc(C(=O)Nc4ccc(O)cc4)c3n2)cc1`, the IC50 was > 50 µM (inactive).
In the case of `COc1cccc(NC(=O)Cn2cc(C(=O)c3ccc(C)cc3)c(=O)c3cc(Cl)ccc32)c1`, the IC50 was > 50 µM (inactive).
With `COc1cc(NC(=O)Cn2c(=O)n(-c3ccc(CC(=O)NCc4ccco4)cc3)c(=O)c3ccccc32)cc(OC)c1` the IC50 was > 50 µM (inactive).
`O=C1Nc2ccccc2C(=O)C1C(c1ccc(Cl)cc1)C1C(=O)Nc2ccccc2C1=O` (centres undefined) showed a pIC50 of 4.35.
In the case of `COc1cccc(NC(=O)C(Sc2cccc(NC(=O)c3ccccc3F)c2)c2ccccc2)c1` (centres undefined), the IC50 was > 50 µM (inactive).
In the case of `O=C(NCCc1nc2ccccc2n1CCOc1ccccc1Cl)C1CCCCC1`, the IC50 was > 50 µM (inactive).
`CCCCN1Cc2sc(NC(=O)Nc3ccccc3C)nc2C1=O` was tested, and the IC50 was > 50 µM (inactive).
In the case of `Nc1c(C(=O)NCc2ccc3c(c2)OCO3)nnn1Cc1ccc(Br)cc1F`, the IC50 was > 50 µM (inactive).
In the case of `COc1cccc(-n2cnc3cc(C(=O)NCCc4ccccc4)ccc3c2=O)c1`, the IC50 was > 50 µM (inactive).
`O=C1CC(c2ccco2)Cc2[nH]c(=O)c(-c3nc(-c4ccc(Cl)cc4)cs3)cc21` (centres undefined) gave a pIC50 of 4.54.
In the case of `Cn1c2ccccc2c2ncn(CCCN3CCOCC3)c(=O)c21`, the IC50 was > 50 µM (inactive).
In the case of `Cc1ccc(NC(=O)Cc2nnc3c(-c4nc(C5CC5)no4)cccn23)cc1`, the pIC50 was 4.45.
`Cc1ccc(CNC(=O)CCCn2c(=O)c3sccc3n(CC(=O)OCc3ccccc3)c2=O)cc1` was tested, and the IC50 was > 50 µM (inactive).
`Cn1c(=O)c2ncnnc2n(C)c1=O` was tested, and the IC50 was > 50 µM (inactive).
For `COCCn1c(=O)[nH]c2cc(C(=O)NCCNc3ccc([N+](=O)[O-])cc3C#N)ccc2c1=O`, the IC50 was > 50 µM (inactive).
For `O=C(Cn1c(=O)c2sccc2n(CC(=O)OCc2ccccc2)c1=O)NCc1ccccc1Cl`, the IC50 was > 50 µM (inactive).
`CSCCC(NC(=O)c1ccccc1)c1nc2ccccc2n1CC(=O)Nc1ccccc1` (centres undefined) was tested, and the IC50 was > 50 µM (inactive).
In the case of `O=C(COC(=O)c1ccc(NS(=O)(=O)c2ccc(F)c(F)c2)cc1)Nc1ccc(OCc2ccccc2)cc1`, the IC50 was > 50 µM (inactive).
In the case of `COc1cc(O)cc2c1C(=O)OC(C)CCCCCCC2` (centres undefined), the IC50 was > 50 µM (inactive).
Compound `CCCCCCCc1cc(OC(=O)c2c(CCCCCCC)cc(O)cc2O[C@@H]2O[C@H](CO)[C@@H](O)[C@H](O)[C@H]2O)cc(O)c1C(=O)O` has a pIC50 of 5.00.
For `CCc1nc(SCC(=O)Nc2cc(Cl)ccc2C)c2oc3ccccc3c2n1`, the IC50 was > 50 µM (inactive).
For `COc1ccccc1NC(=O)c1nc(-c2cn(-c3cccc(F)c3)nn2)no1`, the IC50 was > 50 µM (inactive).
With `O=C(Cn1c(=O)n(Cc2ccc(C(=O)NCc3ccco3)cc2)c(=O)c2ccccc21)Nc1ccc2c(c1)OCCO2` the IC50 was > 50 µM (inactive).
`Cc1ccc(NC(=O)CSc2nnc(-c3n[nH]c4c3CCC4)n2N)cc1C` was tested, and the IC50 was > 50 µM (inactive).
For `Cc1cc(=O)n(C)c2c(O)c3c(cc12)c(C)cc(=O)n3C`, the IC50 was > 50 µM (inactive).
In the case of `O=C(Cc1ccc(-n2c(=O)c3ccccc3n(CC(=O)Nc3ccc(Cl)cc3Cl)c2=O)cc1)NCc1ccco1`, the IC50 was > 50 µM (inactive).
Work on `COc1cc(C)cc2c1C(=O)c1c(cc(O)c(Cl)c1O)C2=O` yielded a pIC50 of 4.89.
`CC(C)=CCC/C(C)=C/COc1ccc(/C=C2\C(=O)N(O)[C@@H](C)C(=O)N2O)cc1` was tested, and the IC50 was > 50 µM (inactive).
In the case of `O=C(Nc1ccc(-c2cn3ccsc3n2)cc1)c1ccc(Cl)c([N+](=O)[O-])c1`, the pIC50 was 4.40.
With `COc1ccccc1CNC(=O)CCCCn1c(=O)c2ccccc2n(CC(=O)Nc2ccc(C)cc2C)c1=O` the IC50 was > 50 µM (inactive).
With `COc1cc(OC)cc(N2C(=O)N(CC(=O)c3ccc(Br)cc3)c3ccccc3S2(=O)=O)c1` the IC50 was > 50 µM (inactive).
In the case of `O=C(c1ccco1)N1CCC2(CC1)CC1(CO2)Nc2ccccc2-n2cccc21` (centres undefined), the IC50 was > 50 µM (inactive).
For `COc1ccc(NC(=O)Cn2c(=O)n(Cc3ccco3)c(=O)c3ccc(C(=O)NC4CCCC4)cc32)cc1`, the IC50 was > 50 µM (inactive).
In the case of `O=c1c2[nH]c3ccccc3c2ncn1Cc1ccncc1`, the IC50 was > 50 µM (inactive).
With `O=C(CSc1oc(-c2ccc(F)cc2)nc1S(=O)(=O)c1ccc(F)cc1)Nc1ccc(F)cc1` the IC50 was > 50 µM (inactive).
With `Cc1cc(NC(=O)Cn2c(=O)n(Cc3ccco3)c(=O)c3ccc(C(=O)NCCc4ccccc4)cc32)n[nH]1` the IC50 was > 50 µM (inactive).
In the case of `O=C(NCc1ccco1)c1ccc(Cn2c(=O)c3sccc3n(Cc3cc(=O)n4ccccc4n3)c2=O)cc1`, the IC50 was > 50 µM (inactive).
For `O=C(CSc1ncnc2c1oc1ccccc12)NCCc1ccccc1`, the IC50 was > 50 µM (inactive).
Work on `Cc1ccc(Nc2nc3c(S(=O)(=O)c4ccccc4)nnn3c3ccccc23)c(C)c1` yielded a pIC50 of 4.32.
In the case of `Cn1c(=O)[nH]c2nncnc2c1=O`, the IC50 was > 50 µM (inactive).
In the case of `CC(C)c1ccc(NC(=O)c2cc(-c3cccnc3)n[nH]2)cc1`, the IC50 was > 50 µM (inactive).
With `Cc1ccc(Cn2cc(C(=O)Nc3ccccc3C(N)=O)ccc2=O)cc1` the IC50 was > 50 µM (inactive).
Compound `CC(=O)NS(=O)(=O)c1ccc(NC(=O)/C=C/c2cn(-c3ccccc3)nc2-c2ccccc2)cc1` has a pIC50 of 4.44.
Compound `Cc1ccc(NCc2cc3c(-c4cccc(F)c4)nn(-c4ccccc4)c3[nH]c2=O)cc1C` has a pIC50 of 5.05.
In the case of `Cc1ccc(CNC(=O)CCCn2c(=O)c3sccc3n(CC(=O)Nc3cc(Cl)ccc3C)c2=O)cc1`, the IC50 was > 50 µM (inactive).
`COc1ccc(NC(=O)c2cc(-c3cccnc3)n[nH]2)cc1Cl` was tested, and the IC50 was > 50 µM (inactive).
In the case of `O=C(Cn1cccc(-c2nc(-c3ccccc3)no2)c1=O)Nc1ccccc1F`, the IC50 was > 50 µM (inactive).
For `Cc1nc(N2CCCC2)ncc1-c1cc(=O)[nH]c(Nc2ccc(Cl)cc2Cl)n1`, the IC50 was > 50 µM (inactive).
For `O=C(NCc1ccc(F)cc1)c1cccc(Nc2nc3ccccc3n3cnnc23)c1`, the IC50 was > 50 µM (inactive).
With `O=C(c1ccccn1)N1CCC2(CC1)CC1(CO2)Nc2ccccc2-n2cccc21` (centres undefined) the IC50 was > 50 µM (inactive).
For `O=C(Nc1cccc(Br)c1)c1cc(-c2cccnc2)n[nH]1`, the pIC50 was 4.31.
For `COc1cc2cc3c(c(O)c2c(O)c1-c1c(OC)cc2cc4c(c(O)c2c1O)C(=O)OC1CC(C)OC41)C(=O)OC1CC(C)OC31` (centres undefined), the IC50 was > 50 µM (inactive).
